Reference: paper PMC9751974 (Frontiers in Microbiology, 2022)
≈ marks a conversion by molar mass, not a printed value. Like-named read-outs stand apart in the source and are kept apart here. Where a SMILES comes first, the peptide text is derived from it. [ ]: non-standard residue; d: D form.

Experiments:
[1] = system: E. coli ATCC25922
Method: The MIC values of peptides against E. coli ATCC25922 were determined by the microtiter broth dilution method. The bacteria were grown to the mid-logarithmic phase and diluted into the Luria-Bertani (LB) broth at 1 × 10^5 CFU/mL. […] Polymyxin and the sterile aqua distillate were tested as control. All assays were performed in triplicate.

[2] = system: pepsin and trypsin; assay: Protease stability, pepsin and trypsin stated together
Method: The untreated peptides and buffer solution were used as control. […] All assays were carried out in triplicate.

[3] = system: healthy mouse red blood cells; conditions: cited from earlier work; for hemolysis rate: reported in previous research, ref Zhou et al., 2021
Description: Escherichia coli (E. coli) infection and LPS-induced inflammation are still of severe threat to human health. With the increasing problem of antibiotic resistance, there is a desperate need to develop new approaches to solve the problem.

[4] = system: murine RAW264.7 macrophage cells
Method: The performance of the Cell Counting Kit-8 (CCK-8) assay was applied to investigate the effect of peptides on the viability of murine RAW264.7 macrophage cells and Vero cells in accordance with the previous method ([Zhou et al., 2021]). Cells (2.5 × 10^4 cells/well) were added into 96-well plates and incubated at 37°C in a humidified 5% CO2 environment for 24 h. Then various concentrations (0.15–20 μg/mL) of peptides were mixed with cells. Sterile aqua distillate was used as control. Eventually, 10 μL WST-8 solutions were added into each well. After 4 h of incubation at 37°C, a microplate reader was applied to measure the absorbance of each sample at 460 nm. The following formula was used to calculate cell viability: Cell viability (%) = OD 460 nm of treated sample/OD 460 nm of control × 100%.

[5] = molecular target: pepsin (Sus scrofa, UniProt P00791); assay: Protease stability (MIC after incubation with pepsin); type: in vitro ADME; conditions: pepsin 3,000 U/mg, pH 2.0, 4 h, 37°C; peptide:protease 10:1 w/w (320 and 32 μg/mL); read-out MIC; triplicate
pepsin, sequence (P00791 60-385): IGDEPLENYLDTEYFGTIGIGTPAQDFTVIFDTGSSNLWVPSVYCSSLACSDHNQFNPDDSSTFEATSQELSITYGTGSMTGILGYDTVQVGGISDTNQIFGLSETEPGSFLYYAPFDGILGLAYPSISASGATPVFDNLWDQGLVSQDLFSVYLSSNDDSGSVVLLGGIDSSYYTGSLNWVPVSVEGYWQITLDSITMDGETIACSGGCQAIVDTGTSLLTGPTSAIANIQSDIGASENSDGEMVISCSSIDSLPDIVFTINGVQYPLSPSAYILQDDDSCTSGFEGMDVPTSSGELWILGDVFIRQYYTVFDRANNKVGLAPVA
Method: All assays were carried out in triplicate.

[6] = system: healthy mouse red blood cells; assay: Hemolysis; conditions: mouse red blood cells 8% v/v, PBS pH 7.4, 37°C, 1 h, OD540, three replicates
Method: Hemolytic activity was estimated by determining hemoglobin released from healthy mouse red blood cells. Blood cells were washed three times in sterile PBS (10 mM, pH 7.4) and centrifuged at 1500 rpm for 5 min at 4°C. […] Afterward, the mixtures were incubated at 37°C for 1 h and centrifuged at 1500 rpm for 5 min. Ultimately, the absorbance of supernatants was measured at 540 nm. PBS and 0.1% Triton X-100 were used as the negative and the positive control, respectively. Hemolysis (%) = [(OD540 nm of the treated sample-OD540 nm of the negative control)/ (OD540 nm of positive control-OD540 nm of negative control)] × 100%.

[7] = system: RAW264.7 cells and Vero cells; assay: Cytotoxicity, CCK-8 assay, RAW264.7 and Vero stated together; conditions: 128 μg/mL; range over Figures 1D,E (RAW264.7 and Vero)
Method: Cells (2.5 × 10^4 cells/well) were added into 96-well plates and incubated at 37°C in a humidified 5% CO2 environment for 24 h. […] Sterile aqua distillate was used as control. Eventually, 10 μL WST-8 solutions were added into each well. After 4 h of incubation at 37°C, a microplate reader was applied to measure the absorbance of each sample at 460 nm. The following formula was used to calculate cell viability: Cell viability (%) = OD 460 nm of treated sample/OD 460 nm of control × 100%.

[8] = system: murine RAW264.7 macrophage cells; conditions: 128 μg/mL; cell line not given; ref Zhou et al., 2021; cited from earlier work
Method: The toxicity of peptides to mouse eukaryotic cells, macrophagocyte RAW 264.7 and Vero cells was determined.

[9] = ref Zhou et al., 2021; cited from earlier work
Description: As essential components of innate immunity, antimicrobial peptides (AMPs) contribute to the first line of defense against infections. […] However, its ant ...

[10] = system: E. coli ATCC25922; assay: Development of resistance by serial passaging (MIC assay); type: cell-based, Escherichia coli; conditions: 11 serial passages of E. coli ATCC25922, inoculum from 1/4 MIC well, 11 days
Method: The development of resistance against E. coli ATCC25922 of these peptides was performed by MIC assay. Mid-log phase of bacteria (1 × 10^5 CFU/mL) (90 μL/well) was added to 10 μL peptides solution (128, 64, 32, 16, 8, 4, 2, 1, 0.5, 0.25 μg/mL). Polymyxin were used as control. After incubation at 37°C for 16–18 h, bacteria form 1/4 MIC well were used to inoculate in fresh culture. The MIC values were continually determined as described above. The serial passaging was repeated for 11 days.

Q: For `CC(C)C[C@H](NC(=O)[C@H](CCCNC(=N)N)NC(=O)[C@@H](N)C(C)C)C(=O)N[C@@H](CCCNC(=N)N)C(=O)N[C@@H](Cc1c[nH]c2ccccc12)C(=O)N[C@@H](Cc1c[nH]c2ccccc12)C(=O)N[C@@H](CCCNC(=N)N)C(=O)N[C@@H](CCCNC(=N)N)C(=O)N[C@@H](CCCNC(=N)N)C(=O)N[C@@H](Cc1c[nH]c2ccccc12)C(=O)N[C@@H](CCCNC(=N)N)C(=O)N[C@@H](CCCNC(=N)N)C(N)=O` [1018M] (H-VRLRWWRRRWRR-NH2), which MIC ([1]; ATCC25922) is on record?
A: 8 µg/mL (≈ 4.25 µM)

Q: And the “decline of anti-E. coli ability after exposure to pepsin and trypsin” value (shortened to “decline of anti-E. coli ability”) [2]?
A: 4 times

Q: And the hemolysis [3]?
A: 0%

Q: For `CC(C)C[C@@H](NC(=O)[C@@H](CCCNC(=N)N)NC(=O)[C@H](N)C(C)C)C(=O)N[C@H](CCCNC(=N)N)C(=O)N[C@H](Cc1c[nH]c2ccccc12)C(=O)N[C@H](Cc1c[nH]c2ccccc12)C(=O)N[C@H](CCCNC(=N)N)C(=O)N[C@H](CCCNC(=N)N)C(=O)N[C@H](CCCNC(=N)N)C(=O)N[C@H](Cc1c[nH]c2ccccc12)C(=O)N[C@H](CCCNC(=N)N)C(=O)N[C@H](CCCNC(=N)N)C(N)=O` [D1018M] (H-[dV][dR][dL][dR][dW][dW][dR][dR][dR][dW][dR][dR]-NH2), which MIC ([1]; ATCC25922) is on record?
A: 4 µg/mL (≈ 2.13 µM)

Q: And the “decline of anti-E. coli ability” value [2]?
A: 4 times

Q: What about the “increase of resistance against tested proteases” value [2] of the same compound?
A: 2–4 times

Q: And the “safe concentration of murine macrophage cells” value [4]?
A: 4 times of MIC

Q: What does the source list for `CC[C@@H](C)[C@@H](NC(=O)[C@@H](CCCNC(=N)N)NC(=O)[C@H](NC(=O)[C@@H](C)NC(=O)[C@H](NC(=O)[C@H](NC(=O)[C@@H](CC(C)C)NC(=O)[C@@H](CCCNC(=N)N)NC(=O)[C@H](N)C(C)C)[C@H](C)CC)C(C)C)C(C)C)C(=O)N[C@H](Cc1c[nH]c2ccccc12)C(=O)N[C@H](CCCNC(=N)N)C(=O)N[C@H](CCCNC(=N)N)C(N)=O` [D1018] (H-[dV][dR][dL][dI][dV][dA][dV][dR][dI][dW][dR][dR]-NH2)?
A: MIC against E. coli ATCC25922 after exposure to pepsin [5]: 4 µg/mL (≈ 2.6 µM); increase of resistance against tested proteases ([2]; abstract, D-peptides compared with L-parents): 2–4 times; hemolysis rate ([6]; 32 μg/mL): 0.542%; hemolysis rate ([6]; 64 μg/mL): 1.724%; hemolysis rate ([6]; 128 μg/mL): 2.316%; survival rate [7]: 81.7–87.6%

Q: For `CC[C@H](C)[C@H](NC(=O)[C@H](CCCNC(=N)N)NC(=O)[C@@H](NC(=O)[C@H](C)NC(=O)[C@@H](NC(=O)[C@@H](NC(=O)[C@H](CC(C)C)NC(=O)[C@H](CCCNC(=N)N)NC(=O)[C@@H](N)C(C)C)[C@@H](C)CC)C(C)C)C(C)C)C(=O)N[C@@H](Cc1c[nH]c2ccccc12)C(=O)N[C@@H](CCCNC(=N)N)C(=O)N[C@@H](CCCNC(=N)N)C(N)=O` [IDR-1018] (H-VRLIVAVRIWRR-NH2), which “decline of anti-E. coli ability” value ([2]; 4 h, 37°C, pepsin pH 2.0 and trypsin pH 8.0, 10:1 w/w, read-out MIC vs untreated peptide) is on record?
A: 2–4 times

Q: And the hemolysis rate ([3]; 32 μg/mL)?
A: 0.386%

Q: And the hemolysis rate ([3]; 64 μg/mL)?
A: 2.136%

Q: And the hemolysis rate ([3]; 128 μg/mL)?
A: 2.651%

Q: What about the survival rate [8] of the same compound?
A: 95.9%

Q: And the “decrease of activity on exposure to inappropriate temperature, pH, or protease environment” value [9]?
A: 2–16 times

Q: For Polymyxin [reference compound], which MIC ([1]; E. coli ATCC25922, LB broth, 1 × 10^5 CFU/mL, 37°C, 16–24 h, triplicate) is on record?
A: 1.56 µg/mL

Q: And the “change of MIC after serial passages” value [10]?
A: no change in MIC
